Laboratory results reported in patent publication US7879795B2, “Enhancement of tigecycline potency using efflux pump inhibitors” (Mpex Pharmaceuticals, Inc., priority 2004, dated 2011).

Key:
[1] = tested on: P. aeruginosa, PAM1723, overexpressing the MexAB-OprM efflux pump; experiment: Levofloxacin potentiation checkerboard assay (broth microdilution); assay type: cell-based
In short: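 Checkerboard of levofloxacin against efflux pump inhibitors (EPIs) in Mueller-Hinton broth (MHB), with the EPIs titrated down the rows. Plates were incubated 20 h at 35 °C; growth was read at 650 nm and also scored visually.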

Stability in human serum = assay type: in vitro ADME; settings: in words
Procedure: FIG. 9 compares the stability of compounds 1 and 3 in human serum as a function of time. Both compound 1 and compound 3 were stable after 18 hours of incubation with human serum.

[2] = Rat serum pharmacokinetics after 2-hour IV infusion; assay type: in vivo; settings: serum, 2-hour IV infusion, total dose 10 mg/kg, two-compartment model
Procedure: Rat serum pharmacokinetics of compounds 1, 3, 7, and 21 was evaluated after 2-hour IV infusion of 1 mg/ml EPI solution in 0.9% saline. Total infused dose was 10 mg/kg. FIG. 12 depicts the serum concentrations as a function of time. A two-compartment model was used to fit the data and calculate PK parameters.

[3] = Tissue levels after 2-hour IV infusion in rats; assay type: in vivo, rat; settings: for concentration at 4 h: 2 h after end of 2-hour IV infusion; for concentration at 4 h / concentration at 2 h: 10 mg/kg; for concentration at 2 h: end of 2-hour IV infusion
Procedure: Levels of EPIs in various tissues were evaluated after 2-hour IV infusion in rats. The rats received 10 mg/kg IV infusion through FVC. Animals were divided into 2 groups: group 1 was sacrificed immediately after the end of infusion and group 2, 2 h or 4 h after the end of infusion. Tissues from each animal were collected, homogenized and compounds were extracted. Tissues were mixed with saline at 1:1 ratio (v/w) in 12×75 mm polypropylene round bottom tubes. The mixtures were homogenized with a Polytron homogenizer (on ice, 3×10-15 seconds with 30 seconds intervals at the setting of 7). 50 μl of homogenized tissue were immediately transferred to an Eppendorf tube and 2-volumes of 4% TCA were added. After vortexing for 30 seconds, the tubes were centrifuged in a microfuge at top speed (13.2 k rpm) for 5 minutes. The supernatant was collected, and 45 μl of the supernatant was transferred to a glass LC/MS/MS vial (Kimble, 11 mm, 1.5 ml) for analysis, which allowed determination of tissue levels of EPIs at the end of the infusion and 2 h or 4 h later.

[4] = tested on: P. aeruginosa strain PAM1032 overexpressing MexAB-OprM efflux pump; experiment: Mouse sepsis model of PA infection (ED50 of levofloxacin); assay type: in vivo; settings: increasing concentrations of EPI, dose-dependent
Procedure: P. aeruginosa strain PAM1032 overexpressing MexAB-OprM efflux pump was grown overnight in Mueller-Hinton Broth (MHB). The next day, the overnight culture was diluted in fresh MHB and was allowed to re-grow to ˜10^8 CFU/mL (OD600˜0.3). The culture was spun down, washed twice with phosphate buffered saline (PBS) and re-suspend in PBS to ˜1.2×10^7 CFU/mL (OD=0.12). Next this culture was mixed 1:1 with 14% hog-gastric mucin in PBS to give a final inoculum of […].
The effect of the EPI at 50 mg/kg was determined according to the following experimental design: […]

[5] = tested on: P. aeruginosa strain PAM1723 overexpressing MexAB-OprM efflux pump; experiment: Neutropenic mice thigh model of PA infection; assay type: in vivo; settings: levofloxacin 30 mg/kg SQ, EPI 60 mg/kg IP, 2 hours post-infection
Procedure: Efficacy of the EPIs was evaluated in a Neutropenic Mice Thigh Model of P. aeruginosa Infection. Neutropenia was induced by cyclophosphamide 100 mg/kg IP on days 3 and 1 prior to infection. P. aeruginosa strain PAM1723 overexpressing MexAB-OprM efflux pump was grown overnight in Mueller-Hinton Broth (MHB). The next day, the overnight culture was diluted in fresh MHB and was allowed to re-grow to ˜10^8 CFU/mL (OD600˜0.3). The culture was spun down, washed twice with phosphate buffered saline (PBS) and re-suspend in PBS to ˜4×10^6 CFU/mL. Next, this culture was mixed 1:1 with 14% hog-gastric mucin in PBS to give a final inoculum of 2×10^6 CFU/mL. Infection was initiated with injection of 0.1 mL of inoculum (˜2×10^5 CFU/thigh) directly into both thighs of each mouse. Two mice from each treatment group were euthanized at various times after the start of treatment. The thighs were removed aseptically, homogenized in saline, and immediately plated to determine bacterial load (CFU/ml). Treatment was initiated 2 hours post infection.

NCCC[C@H](N)C(=O)N[C@H](CCc1ccccc1)C(=O)Nc1cnc2ccccc2c1 [Compound 3, 2-(S),5-Diamino-pentanoic acid [3-phenyl-1-(R)-(quinolin-3-ylcarbamoyl)-propyl]-amide]
Antibiotic (levofloxacin) MIC in the presence of EPI ([1]; EPI 0 μg/ml (levofloxacin alone)): 2 µg/mL
Antibiotic (levofloxacin) MIC in the presence of EPI ([1]; EPI 1.25 μg/ml): 2 µg/mL
Antibiotic (levofloxacin) MIC in the presence of EPI ([1]; EPI 5 μg/ml): 0.25 µg/mL
Antibiotic (levofloxacin) MIC in the presence of EPI ([1]; EPI 10 μg/ml): 0.03 µg/mL
Antibiotic (levofloxacin) MIC in the presence of EPI ([1]; EPI 20 μg/ml): 0.015 µg/mL
Antibiotic (levofloxacin) MIC in the presence of EPI ([1]; EPI 40 μg/ml): 0.015 µg/mL
Antibiotic (levofloxacin) MIC in the presence of EPI ([1]; EPI 80 μg/ml): 0.015 µg/mL
Antibiotic (levofloxacin) MIC in the presence of EPI ([1]; EPI […]): 1 µg/mL
MPC8 ([1]; EPI concentration necessary to increase susceptibility to levofloxacin eight-fold): 10 µg/mL
stability after 18 hours of incubation with human serum (Stability in human serum): stable
clearance [2]: 23.3 mL/min/kg
2 h/4 h Ratio ([3]; rat brain concentration): 0.35
concentration at 4 h ([3]; rat brain): 210 ng/mL
concentration at 2 h ([3]; rat brain): 70 ng/mL
2 h/4 h Ratio ([3]; rat heart concentration): 4.82
concentration at 4 h ([3]; rat heart): 470 ng/mL
concentration at 2 h ([3]; rat heart): 2260 ng/mL
2 h/4 h Ratio ([3]; rat kidney concentration): 7.28
concentration at 4 h ([3]; rat kidney): 1680 ng/mL
concentration at 2 h ([3]; rat kidney): 12200 ng/mL
2 h/4 h Ratio ([3]; rat liver concentration): 1.60
concentration at 4 h ([3]; rat liver): 830 ng/mL
concentration at 2 h ([3]; rat liver): 1330 ng/mL
2 h/4 h Ratio ([3]; rat lung concentration): 2.23
concentration at 4 h ([3]; rat lung): 1910 ng/mL
concentration at 2 h ([3]; rat lung): 4270 ng/mL
2 h/4 h Ratio ([3]; rat muscle concentration): 1.91
concentration at 4 h ([3]; rat muscle): 1140 ng/mL
concentration at 2 h ([3]; rat muscle): 2180 ng/mL
2 h/4 h Ratio ([3]; rat pancreas concentration): 2.91
concentration at 4 h ([3]; rat pancreas): 380 ng/mL
concentration at 2 h ([3]; rat pancreas): 1110 ng/mL
2 h/4 h Ratio ([3]; rat spleen concentration): 6.16
concentration at 4 h ([3]; rat spleen): 720 ng/mL
concentration at 2 h ([3]; rat spleen): 4410 ng/mL
2 h/4 h Ratio ([3]; rat testicles concentration): 5.14
concentration at 4 h ([3]; rat testicles): 60 ng/mL
concentration at 2 h ([3]; rat testicles): 320 ng/mL
2 h/4 h Ratio ([3]; rat thymus concentration): 1.69
concentration at 4 h ([3]; rat thymus): 1460 ng/mL
concentration at 2 h ([3]; rat thymus): 2460 ng/mL
tissue levels and clearance from tissues after 2-hour IV infusion ([3]; rat, in words): Lower levels
decrease in ED50 of levofloxacin [4]: up to 4 fold
bacterial load in thighs, EPI with levofloxacin versus levofloxacin alone [5]: potentiated levofloxacin in vivo
